Experimental data: patent publication US10035760B2, “Inhibitors of human immunodeficiency virus replication” (priority 2013, dated 2018)
pEC50: −log10 of the molar value. Like-named read-outs stand apart in the source and are kept apart here.

System: recombinant NL4-3 virus (Renilla luciferase) in MT-2 cells
Assay: HIV cell culture assay (antiviral activity, luciferase readout in infected MT-2 cells)
Format: cell-based
Conditions: Renilla
How it was run: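 EC50 derived via median-effect equation from luciferase activity in MT-2 cells after 4–5 day infection, compound serially diluted. Virus: recombinant NL4-3 with Renilla luciferase replacing part of nef, made in 293T cells.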

[1] = NL43, read-out: Activity, antiviral activity class, recombinant NL4-3 Renilla luciferase virus in MT-2 cells
[2] = NL43, recombinant NL4-3 Renilla luciferase virus in MT-2 cells

| Structure (SMILES) | pEC50 [1] | pEC50 [2] |
| --- | --- | --- |
| CN(C(=O)[C@H](Cc1ccccc1)NC(=O)NS(=O)(=O)C1(Cc2ccccc2)CC1)c1ccc2c(c1)OCO2 [Example 107, (S)—N-(benzo[d][1,3]dioxol-5-yl)-2-(3-((1-benzylcyclopropyl)sulfonyl)ureido)-N-methyl-3-phenylpropanamide] | 5.00 to 6.00 | – |
| COc1ccccc1S(=O)(=O)NC(=O)N[C@@H](Cc1ccccc1)C(=O)N(C)c1ccc2c(c1)OCO2 [Example 108, (S)—N-(benzo[d][1,3]dioxol-5-yl)-2-(3-((2-methoxyphenyl)sulfonyl)ureido)-N-methyl-3-phenylpropanamide] | 6.00 to 7.00 | – |
| CN(C(=O)[C@H](Cc1ccccc1)NC(=O)NS(=O)(=O)Cc1ccc(Cl)cc1)c1ccc2c(c1)OCO2 [Example 109, (S)—N-(benzo[d][1,3]dioxol-5-yl)-2-(3-((4-chlorobenzyl)sulfonyl)ureido)-N-methyl-3-phenylpropanamide] | 6.00 to 7.00 | – |
| CN(C(=O)[C@H](Cc1ccccc1)NC(=O)NS(=O)(=O)Cc1ccc(F)cc1)c1ccc2c(c1)OCO2 [Example 110, (S)—N-(benzo[d][1,3]dioxol-5-yl)-2-(3-((4-fluorobenzyl)sulfonyl)ureido)-N-methyl-3-phenylpropanamide] | 6.00 to 7.00 | 6.80 |
| CN(C(=O)[C@H](Cc1ccccc1)NC(=O)NS(=O)(=O)C1CCCCC1)c1ccc2c(c1)OCO2 [Example 111, (S)—N-(benzo[d][1,3]dioxol-5-yl)-2-(3-(cyclohexylsulfonyl)ureido)-N-methyl-3-phenylpropanamide] | 6.00 to 7.00 | – |
| CCN(C(=O)[C@H](Cc1ccccc1)NC(=O)NS(=O)(=O)c1cccc(Br)c1)c1ccc(OC)cc1 [Example 112, (S)-2-(3-((3-bromophenyl)sulfonyl)ureido)-N-ethyl-N-(4-methoxyphenyl)-3-phenylpropanamide] | > 7.00 | – |
| CCN(C(=O)[C@H](Cc1ccccc1)NC(=O)NS(=O)(=O)c1ccccc1[N+](=O)[O-])c1ccc(OC)cc1 [Example 113, (S)—N-ethyl-N-(4-methoxyphenyl)-2-(3-((2-nitrophenyl)sulfonyl)ureido)-3-phenylpropanamide] | > 7.00 | – |
| CCN(C(=O)[C@H](Cc1ccccc1)NC(=O)NS(=O)(=O)c1ccccc1C(=O)OC)c1ccc(OC)cc1 [Example 114, (S)-methyl 2-(N-((1-(ethyl(4-methoxyphenyl)amino)-1-oxo-3-phenylpropan-2-yl)carbamoyl)sulfamoyl)benzoate] | 5.00 to 6.00 | 5.97 |
| CCN(C(=O)[C@H](Cc1ccccc1)NC(=O)NS(=O)(=O)c1cccc(Br)c1C)c1ccc(OC)cc1 [Example 115, (S)-2-(3-((3-bromo-2-methylphenyl)sulfonyl)ureido)-N-ethyl-N-(4-methoxyphenyl)-3-phenylpropanamide] | > 7.00 | – |
| CCN(C(=O)[C@H](Cc1ccccc1)NC(=O)NS(=O)(=O)c1cccc2ccccc12)c1ccc(OC)cc1 [Example 116, (S)—N-ethyl-N-(4-methoxyphenyl)-2-(3-(naphthalen-1-ylsulfonyl)ureido)-3-phenylpropanamide] | > 7.00 | – |
| CCN(C(=O)[C@H](Cc1ccccc1)NC(=O)NS(=O)(=O)c1ccccc1F)c1ccc(OC)cc1 [Example 117, (S)—N-ethyl-2-(3-((2-fluorophenyl)sulfonyl)ureido)-N-(4-methoxyphenyl)-3-phenylpropanamide] | > 7.00 | – |
| CCN(C(=O)[C@H](Cc1ccccc1)NC(=O)NS(=O)(=O)c1c(F)cccc1F)c1ccc(OC)cc1 [Example 118, (S)-2-(3-((2,6-difluorophenyl)sulfonyl)ureido)-N-ethyl-N-(4-methoxyphenyl)-3-phenylpropanamide] | > 7.00 | 7.40 |
| CCN(C(=O)[C@H](Cc1ccccc1)NC(=O)NS(=O)(=O)c1cccc(Cl)c1Cl)c1ccc(OC)cc1 [Example 119, (S)-2-(3-((2,3-dichlorophenyl)sulfonyl)ureido)-N-ethyl-N-(4-methoxyphenyl)-3-phenylpropanamide] | > 7.00 | – |
| CCN(C(=O)[C@H](Cc1ccccc1)NC(=O)NS(=O)(=O)c1cc(Br)ccc1C)c1ccc(OC)cc1 [Example 120, (S)-2-(3-((5-bromo-2-methylphenyl)sulfonyl)ureido)-N-ethyl-N-(4-methoxyphenyl)-3-phenylpropanamide] | 6.00 to 7.00 | – |
| CCN(C(=O)[C@H](Cc1ccccc1)NC(=O)NS(=O)(=O)c1cccc(-c2ccoc2)c1)c1ccc(OC)cc1 [Example 121, (S)—N-ethyl-2-(3-((3-(furan-3-yl)phenyl)sulfonyl)ureido)-N-(4-methoxyphenyl)-3-phenylpropanamide] | > 7.00 | – |
| CCN(C(=O)[C@H](Cc1ccccc1)NC(=O)NS(=O)(=O)c1cccc(-c2ccoc2)c1C)c1ccc(OC)cc1 [Example 122, (S)—N-ethyl-2-(3-((3-(furan-3-yl)-2-methylphenyl)sulfonyl)ureido)-N-(4-methoxyphenyl)-3-phenylpropanamide] | 6.00 to 7.00 | – |
| CCN(C(=O)[C@H](Cc1ccccc1)NC(=O)NS(=O)(=O)c1cc(-c2ccoc2)ccc1C)c1ccc(OC)cc1 [Example 123, (S)—N-ethyl-2-(3-((5-(furan-3-yl)-2-methylphenyl)sulfonyl)ureido)-N-(4-methoxyphenyl)-3-phenylpropanamide] | 6.00 to 7.00 | 6.18 |
| CN(C(=O)[C@H](Cc1ccccc1)NC(=O)NS(=O)(=O)c1ccccc1-c1ccc(CO)cc1)c1ccc2c(c1)OCO2 [Example 124, (S)—N-(benzo[d][1,3]dioxol-5-yl)-2-(3-((4′-(hydroxymethyl)-[1,1′-biphenyl]-2-yl)sulfonyl)ureido)-N-methyl-3-phenylpropanamide] | 5.00 to 6.00 | – |
| CN(C(=O)[C@H](Cc1ccccc1)NC(=O)NS(=O)(=O)c1ccccc1-c1cccc(O)c1)c1ccc2c(c1)OCO2 [Example 125, (S)—N-(benzo[d][1,3]dioxol-5-yl)-2-(3-((3′-hydroxy-[1,1′-biphenyl]-2-yl)sulfonyl)ureido)-N-methyl-3-phenylpropanamide] | 5.00 to 6.00 | – |
| COc1ccc(-c2ccccc2S(=O)(=O)NC(=O)N[C@@H](Cc2ccccc2)C(=O)N(C)c2ccc3c(c2)OCO3)cn1 [Example 126, (S)—N-(benzo[d][1,3]dioxol-5-yl)-2-(3-((2-(6-methoxypyridin-3-yl)phenyl)sulfonyl)ureido)-N-methyl-3-phenylpropanamide] | 4.00 to 5.00 | – |
| CN(C(=O)[C@H](Cc1ccccc1)NC(=O)NS(=O)(=O)c1ccccc1-c1cncnc1)c1ccc2c(c1)OCO2 [Example 127, (S)—N-(benzo[d][1,3]dioxol-5-yl)-N-methyl-3-phenyl-2-(3-((2-(pyrimidin-5-yl)phenyl)sulfonyl)ureido)propanamide] | 4.00 to 5.00 | 4.66 |
| CN(C(=O)[C@H](Cc1ccccc1)NC(=O)NS(=O)(=O)c1ccccc1-c1cccnc1)c1ccc2c(c1)OCO2 [Example 128, (S)—N-(benzo[d][1,3]dioxol-5-yl)-N-methyl-3-phenyl-2-(3-((2-(pyridin-3-yl)phenyl)sulfonyl)ureido)propanamide] | 5.00 to 6.00 | – |
| COc1ncccc1-c1ccccc1S(=O)(=O)NC(=O)N[C@@H](Cc1ccccc1)C(=O)N(C)c1ccc2c(c1)OCO2 [Example 129, (S)—N-(benzo[d][1,3]dioxol-5-yl)-2-(3-((2-(2-methoxypyridin-3-yl)phenyl)sulfonyl)ureido)-N-methyl-3-phenylpropanamide] | 5.00 to 6.00 | 5.26 |
